{"source": "patent US8367328B2", "about": "“Method for synthesizing DNA” (Takara Bio Inc., priority 1998, dated 2013)", "biological_target": "T1, Pfu DNA Polymerase II (Pyrococcus furiosus, UniProt P81409+P81412)", "T1 construct": "made in house; host or cells: Escherichia coli JM109/pFU1001 (FERM BP-5579)", "T1 sequence (P81409 1-1263)": "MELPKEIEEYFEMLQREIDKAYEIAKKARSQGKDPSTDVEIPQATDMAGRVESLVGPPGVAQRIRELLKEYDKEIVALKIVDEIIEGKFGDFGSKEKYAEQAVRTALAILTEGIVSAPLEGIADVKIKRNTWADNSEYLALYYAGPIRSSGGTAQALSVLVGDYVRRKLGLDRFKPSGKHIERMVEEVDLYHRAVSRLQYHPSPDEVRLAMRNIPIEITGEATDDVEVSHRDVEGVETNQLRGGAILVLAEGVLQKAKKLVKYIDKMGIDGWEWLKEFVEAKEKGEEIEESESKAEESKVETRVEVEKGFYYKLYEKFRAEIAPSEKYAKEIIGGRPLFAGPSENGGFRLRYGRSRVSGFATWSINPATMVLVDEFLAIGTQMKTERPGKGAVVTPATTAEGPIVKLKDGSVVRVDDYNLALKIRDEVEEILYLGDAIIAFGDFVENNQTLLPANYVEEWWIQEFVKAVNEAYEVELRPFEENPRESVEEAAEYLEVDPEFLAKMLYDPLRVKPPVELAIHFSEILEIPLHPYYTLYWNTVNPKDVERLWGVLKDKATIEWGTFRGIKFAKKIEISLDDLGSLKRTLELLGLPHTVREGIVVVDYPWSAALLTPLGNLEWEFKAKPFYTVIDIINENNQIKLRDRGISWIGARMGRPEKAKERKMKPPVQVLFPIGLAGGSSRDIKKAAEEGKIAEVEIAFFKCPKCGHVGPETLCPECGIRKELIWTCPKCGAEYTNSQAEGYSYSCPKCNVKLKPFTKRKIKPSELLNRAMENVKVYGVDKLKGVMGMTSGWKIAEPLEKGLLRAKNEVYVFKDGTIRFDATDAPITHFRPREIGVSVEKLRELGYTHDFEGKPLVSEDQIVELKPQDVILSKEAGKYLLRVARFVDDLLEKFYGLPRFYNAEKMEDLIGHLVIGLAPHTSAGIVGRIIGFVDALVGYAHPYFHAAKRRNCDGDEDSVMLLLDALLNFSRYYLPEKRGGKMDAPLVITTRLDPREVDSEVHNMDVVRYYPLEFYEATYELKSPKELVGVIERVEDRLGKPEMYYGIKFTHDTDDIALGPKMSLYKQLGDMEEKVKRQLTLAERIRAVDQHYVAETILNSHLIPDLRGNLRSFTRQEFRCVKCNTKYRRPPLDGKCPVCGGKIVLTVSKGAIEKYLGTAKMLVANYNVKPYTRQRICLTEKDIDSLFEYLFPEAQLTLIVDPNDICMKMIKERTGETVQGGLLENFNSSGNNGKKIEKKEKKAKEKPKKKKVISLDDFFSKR", "T1 sequence (P81412 1-613)": "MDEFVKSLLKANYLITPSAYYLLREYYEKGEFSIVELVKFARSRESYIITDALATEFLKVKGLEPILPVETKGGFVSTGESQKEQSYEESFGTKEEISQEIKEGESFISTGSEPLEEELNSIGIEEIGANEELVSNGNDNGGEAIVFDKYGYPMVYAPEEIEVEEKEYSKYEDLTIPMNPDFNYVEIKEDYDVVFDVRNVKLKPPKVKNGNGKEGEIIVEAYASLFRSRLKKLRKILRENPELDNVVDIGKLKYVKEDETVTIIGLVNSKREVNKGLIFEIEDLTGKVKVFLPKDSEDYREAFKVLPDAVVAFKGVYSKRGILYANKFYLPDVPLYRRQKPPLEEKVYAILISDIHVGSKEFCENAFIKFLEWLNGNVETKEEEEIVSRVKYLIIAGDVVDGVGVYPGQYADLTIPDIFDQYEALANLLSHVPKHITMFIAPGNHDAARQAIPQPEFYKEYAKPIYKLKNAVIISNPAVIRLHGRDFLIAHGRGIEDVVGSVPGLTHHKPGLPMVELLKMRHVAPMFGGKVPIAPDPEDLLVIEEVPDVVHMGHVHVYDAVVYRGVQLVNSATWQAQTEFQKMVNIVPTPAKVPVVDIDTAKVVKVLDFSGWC", "assay": "PCR with Pfu DNA Polymerase II in the presence of acidic substances (λDNA template)", "assay_type": "biochemical", "settings": "0.5 kb fragment; 100 pg λDNA, primers λ1/λ2, 25 cycles 98°C 5 s–66°C 15 s; amount added 1 μg", "description": "A reaction mixture comprising λDNA as a template, primers λ1 and λ3 as a primer pair, and Pfu DNA Polymerase II as DNA polymerase was prepared, and PCR was carried out. The composition of the reaction mixture is as follows.\n10 mM Tris-hydrochloric acid (pH 9.2), 75 mM potassium chloride, 6 mM magnesium chloride, 0.4 mM each of dATP, dCTP, dGTP and dTTP, 0.01% BSA, 1.25 U of Pfu DNA Polymerase II, 500 pg of λDNA, and 5 pmol each of primers λ1 and λ3 (a final volume being 25 μl). […]\nUsing the sulfated-fucose-containing Polysaccharide-F obtained in Example 6 described above, dextran sulfate powder (manufactured by Onco), or sodium alginate (100 to 150 centipoises, manufactured by Wako Pure Chemicals), the effects of these acidic substances on the activity of Pfu DNA Polymerase II were examined. A reaction mixture comprising λDNA as a template, primers λ1 and λ2 as a primer pair, and Pfu DNA Polymerase II as DNA polymerase was prepared, and PCR was carried out. The composition of the reaction mixture is as follows.\n(§1) 10 mM Tris-hydrochloric acid, pH 9.2, 75 mM potassium chloride, 6 mM magnesium chloride, 0.4 mM each of dATP, dCTP, dGTP and dTTP, 0.01% BSA, 1.25 U of Pfu DNA Polymerase II, 100 pg of λDNA, and 5 pmol each of primers λ1 and λ2 (a final volume being 25 μl). Further, 10 ng of the sulfated-fucose-containing polysaccharide-F, 10 ng of dextran sulfate powder, or 1 μg of sodium alginate was respectively added to the above reaction mixture.\n(§2) The reaction in 25 cycles was carried out for each of these reaction mixtures, wherein one cycle of reaction comprises a process consisting of 98° C., 5 seconds—66° C., 15 seconds. Thereafter, 5 μl of the resulting reaction mixture was subjected to electrophoresis on 1% agarose gel containing ethidium bromide in an amount of 0.00005%, whereby an amplified fragment was confirmed.\nFurther, studies were conducted on the effects of the sulfated-fucose-containing polysaccharide-F obtained in Example 6 described above, the sulfated-fucose-containing polysaccharide-U obtained in Example 7 described above, or sodium polyglutamate (manufactured by Sigma) as an acidic substance. A reaction mixture for PCR was prepared in the same manner as described above except for changing the amount of template λDNA to 500 pg and the primer pairs to primers λ1 and λ3. Five nanograms of the sulfated-fucose-containing polysaccharide-F, 5 ng, 10 ng, 20 ng or 30 ng each of the sulfated-fucose-containing polysaccharide-U, or 250 ng, 500 ng, 750 ng or 1000 ng each of sodium polyglutamate was respectively added to the above reaction mixture.\nas §2, with “reaction” for “reaction in 25 cycles”, “in 30 cycles,” for “for each of these reaction mixtures,”, “After the termination of the reaction,” for “Thereafter,”\nUsing the sulfated-fucose-containing polysaccharide-F obtained in Example 6 described above, the effects on the activity of Pfu DNA Polymerase II were examined. A reaction mixture comprising λDNA as a template, primers λ1 and λ2 as a primer pair, and Pfu DNA Polymerase II as DNA polymerase was prepared, and PCR was carried out. The composition of the reaction mixture is as follows.\nas §1, with “500” for “100”, “polysaccharide-F” for “polysaccharide-F, 10 ng of dextran sulfate powder, or 1 μg of sodium alginate”\nThe reaction in 30 cycles was carried out for each of these reaction mixtures, wherein one cycle of reaction comprises a process consisting of 98° C., 5 seconds—66° C., 15 seconds. […]", "data": [{"substance": "sodium alginate", "values": [{"measurement": "Amplification Results", "value": "+ (Amplification being observed)"}]}]}
